# Numbers after ± are expanded uncertainties.
# Test: xn = mol fraction of the nth substance listed
# Conditions: Liquid; for viscosity: Capillary tube (Ostwald / Ubbelohde) method; for mass density: Vibrating tube method
smiles,measurement,setting,value
CCCO [propan-1-ol] + O,viscosity,"373.2 K, 30000 kPa, x1 = 0.1",0.455 ± 0.016 mPa·s
same,viscosity,"373.2 K, 30000 kPa, x1 = 0.2",0.533 ± 0.018 mPa·s
same,viscosity,"373.2 K, 30000 kPa, x1 = 0.3",0.577 ± 0.017 mPa·s
same,viscosity,"373.2 K, 30000 kPa, x1 = 0.4",0.57 ± 0.017 mPa·s
same,viscosity,"373.2 K, 30000 kPa, x1 = 0.6",0.576 ± 0.017 mPa·s
same,viscosity,"373.2 K, 30000 kPa, x1 = 0.8",0.572 ± 0.016 mPa·s
same,viscosity,"373.2 K, 30000 kPa, x1 = 1",0.581 ± 0.016 mPa·s
same,mass density,"373.2 K, 30000 kPa, x1 = 0.1",911.46 ± 11 kg/m3
same,mass density,"373.2 K, 30000 kPa, x1 = 0.2",869.79 ± 11 kg/m3
same,mass density,"373.2 K, 30000 kPa, x1 = 0.3",842.03 ± 10 kg/m3
same,mass density,"373.2 K, 30000 kPa, x1 = 0.4",820.4 ± 10 kg/m3
same,mass density,"373.2 K, 30000 kPa, x1 = 0.6",792.47 ± 10 kg/m3
same,mass density,"373.2 K, 30000 kPa, x1 = 0.8",774.18 ± 10 kg/m3
same,mass density,"373.2 K, 30000 kPa, x1 = 1",762.28 ± 10 kg/m3
same,viscosity,"373.2 K, 40000 kPa, x1 = 0.1",0.463 ± 0.016 mPa·s
same,viscosity,"373.2 K, 40000 kPa, x1 = 0.2",0.547 ± 0.019 mPa·s
same,viscosity,"373.2 K, 40000 kPa, x1 = 0.3",0.599 ± 0.017 mPa·s
same,viscosity,"373.2 K, 40000 kPa, x1 = 0.4",0.6 ± 0.017 mPa·s
same,viscosity,"373.2 K, 40000 kPa, x1 = 0.6",0.611 ± 0.017 mPa·s
same,viscosity,"373.2 K, 40000 kPa, x1 = 0.8",0.614 ± 0.016 mPa·s
same,viscosity,"373.2 K, 40000 kPa, x1 = 1",0.613 ± 0.017 mPa·s
same,mass density,"373.2 K, 40000 kPa, x1 = 0.1",916.96 ± 11 kg/m3
same,mass density,"373.2 K, 40000 kPa, x1 = 0.2",875.69 ± 11 kg/m3
same,mass density,"373.2 K, 40000 kPa, x1 = 0.3",848.33 ± 10 kg/m3
same,mass density,"373.2 K, 40000 kPa, x1 = 0.4",827.89 ± 10 kg/m3
same,mass density,"373.2 K, 40000 kPa, x1 = 0.6",800.74 ± 10 kg/m3
same,mass density,"373.2 K, 40000 kPa, x1 = 0.8",782.84 ± 10 kg/m3
same,mass density,"373.2 K, 40000 kPa, x1 = 1",770.94 ± 10 kg/m3
same,viscosity,"476.2 K, 10000 kPa, x1 = 0.1",0.161 ± 0.011 mPa·s
same,viscosity,"476.2 K, 10000 kPa, x1 = 0.2",0.162 ± 0.012 mPa·s
same,viscosity,"476.2 K, 10000 kPa, x1 = 0.3",0.157 ± 0.012 mPa·s
same,viscosity,"476.2 K, 10000 kPa, x1 = 0.4",0.153 ± 0.012 mPa·s
same,viscosity,"476.2 K, 10000 kPa, x1 = 0.6",0.145 ± 0.012 mPa·s
same,viscosity,"476.2 K, 10000 kPa, x1 = 0.8",0.139 ± 0.012 mPa·s
same,viscosity,"476.2 K, 10000 kPa, x1 = 1",0.137 ± 0.012 mPa·s
same,mass density,"476.2 K, 10000 kPa, x1 = 0.1",790.18 ± 11 kg/m3
same,mass density,"476.2 K, 10000 kPa, x1 = 0.2",739.33 ± 11 kg/m3
same,mass density,"476.2 K, 10000 kPa, x1 = 0.3",702.79 ± 11 kg/m3
same,mass density,"476.2 K, 10000 kPa, x1 = 0.4",678.7 ± 10 kg/m3
same,mass density,"476.2 K, 10000 kPa, x1 = 0.6",646.98 ± 10 kg/m3
same,mass density,"476.2 K, 10000 kPa, x1 = 0.8",627.55 ± 10 kg/m3
same,mass density,"476.2 K, 10000 kPa, x1 = 1",612.56 ± 10 kg/m3
same,viscosity,"476.2 K, 20000 kPa, x1 = 0.1",0.171 ± 0.011 mPa·s
same,viscosity,"476.2 K, 20000 kPa, x1 = 0.2",0.172 ± 0.012 mPa·s
same,viscosity,"476.2 K, 20000 kPa, x1 = 0.3",0.17 ± 0.012 mPa·s
same,viscosity,"476.2 K, 20000 kPa, x1 = 0.4",0.17 ± 0.012 mPa·s
same,viscosity,"476.2 K, 20000 kPa, x1 = 0.6",0.161 ± 0.012 mPa·s
same,viscosity,"476.2 K, 20000 kPa, x1 = 0.8",0.157 ± 0.012 mPa·s
same,viscosity,"476.2 K, 20000 kPa, x1 = 1",0.157 ± 0.012 mPa·s
same,mass density,"476.2 K, 20000 kPa, x1 = 0.1",799.73 ± 11 kg/m3
same,mass density,"476.2 K, 20000 kPa, x1 = 0.2",752.08 ± 11 kg/m3
same,mass density,"476.2 K, 20000 kPa, x1 = 0.3",718.75 ± 10 kg/m3
same,mass density,"476.2 K, 20000 kPa, x1 = 0.4",697.03 ± 10 kg/m3
same,mass density,"476.2 K, 20000 kPa, x1 = 0.6",667.25 ± 10 kg/m3
same,mass density,"476.2 K, 20000 kPa, x1 = 0.8",651.81 ± 10 kg/m3
same,mass density,"476.2 K, 20000 kPa, x1 = 1",640.86 ± 10 kg/m3
same,viscosity,"476.2 K, 30000 kPa, x1 = 0.1",0.175 ± 0.011 mPa·s
same,viscosity,"476.2 K, 30000 kPa, x1 = 0.2",0.181 ± 0.012 mPa·s
same,viscosity,"476.2 K, 30000 kPa, x1 = 0.3",0.183 ± 0.012 mPa·s
same,viscosity,"476.2 K, 30000 kPa, x1 = 0.4",0.189 ± 0.012 mPa·s
same,viscosity,"476.2 K, 30000 kPa, x1 = 0.6",0.178 ± 0.012 mPa·s
same,viscosity,"476.2 K, 30000 kPa, x1 = 0.8",0.173 ± 0.012 mPa·s
same,viscosity,"476.2 K, 30000 kPa, x1 = 1",0.176 ± 0.012 mPa·s
same,mass density,"476.2 K, 30000 kPa, x1 = 0.1",810.27 ± 11 kg/m3
same,mass density,"476.2 K, 30000 kPa, x1 = 0.2",764.81 ± 11 kg/m3
same,mass density,"476.2 K, 30000 kPa, x1 = 0.3",733.87 ± 10 kg/m3
same,mass density,"476.2 K, 30000 kPa, x1 = 0.4",713.61 ± 10 kg/m3
same,mass density,"476.2 K, 30000 kPa, x1 = 0.6",686.56 ± 10 kg/m3
same,mass density,"476.2 K, 30000 kPa, x1 = 0.8",672.08 ± 10 kg/m3
same,mass density,"476.2 K, 30000 kPa, x1 = 1",662.44 ± 10 kg/m3
same,viscosity,"476.2 K, 40000 kPa, x1 = 0.1",0.179 ± 0.012 mPa·s
same,viscosity,"476.2 K, 40000 kPa, x1 = 0.2",0.189 ± 0.012 mPa·s
same,viscosity,"476.2 K, 40000 kPa, x1 = 0.3",0.195 ± 0.012 mPa·s
same,viscosity,"476.2 K, 40000 kPa, x1 = 0.4",0.21 ± 0.012 mPa·s
same,viscosity,"476.2 K, 40000 kPa, x1 = 0.6",0.195 ± 0.012 mPa·s
same,viscosity,"476.2 K, 40000 kPa, x1 = 0.8",0.188 ± 0.012 mPa·s
same,viscosity,"476.2 K, 40000 kPa, x1 = 1",0.192 ± 0.012 mPa·s
same,mass density,"476.2 K, 40000 kPa, x1 = 0.1",818.93 ± 11 kg/m3
same,mass density,"476.2 K, 40000 kPa, x1 = 0.2",775.35 ± 11 kg/m3
same,mass density,"476.2 K, 40000 kPa, x1 = 0.3",745.92 ± 10 kg/m3
same,mass density,"476.2 K, 40000 kPa, x1 = 0.4",726.38 ± 10 kg/m3
same,mass density,"476.2 K, 40000 kPa, x1 = 0.6",700.42 ± 10 kg/m3
same,mass density,"476.2 K, 40000 kPa, x1 = 0.8",686.68 ± 10 kg/m3
same,mass density,"476.2 K, 40000 kPa, x1 = 1",677.8 ± 10 kg/m3
